Measured values: US7943583B2, “2-O-(β-D-glucopyranosyl) ascorbic acid, process for its production, and foods cosmetics containing compositions comprising it” (Suntory Holdings Limited, priority 2001, dated 2011)
Like-named read-outs stand apart in the source and are kept apart here.

Legend:
[1] = rats; cited from earlier work
[2] = test system: human skin epidermal keratinocytes (HaCaT); test: Protecting effect against cell death of HaCaT induced by UVB irradiation (WST-1 viable cell count); type: cell-based; settings: compared to ascorbic acid or 2-O-(α-D-glucopyranosyl)ascorbic acid at the same concentration; added at 20-100 μM 2 h before UVB 35 mJ/cm^2
Experimental: The human skin epidermal keratinocyte line HaCaT (a cell line provided by Professor Fusenig of Heidelberg University) was plated on a 24-well plate at 10,000 cells/well with Dulbecco's modified Eagle medium (DMEM) containing 10% fetal bovine serum (FBS) and after 18 hours, the cells were irradiated with UVB (maximum wavelength: 312 nm) at 35 millijoules/square centimeter (mJ/cm^2). Two hours before irradiation, 2-O-(β-D-glucopyranosyl)ascorbic acid was added at 20-100 μM and removed with rinsing just before irradiation. The irradiation was performed in PBS in the absence of chemical agents, after which culturing was continued in DMEM containing 10% FBS, and the viable cell count was determined 24 hours after irradiation by measuring the mitochondrial dehydrogenase activity using 2-(4-iodophenyl)-3-(4-nitrophenyl)-5-(2,4-disulfophenyl)-2H-tetrazolium monosodium salt (WST-1). For comparison, 2-O-(α-D-glucopyranosyl)ascorbic acid and ascorbic acid were examined in a similar manner, and the results are also shown in FIG. 5.

[3] = test system: human skin epidermal keratinocytes (HaCaT); test: Intracellular ascorbic acid concentration in human skin epidermal keratinocytes (HPLC); type: cell-based; settings: 100 μM, 3-24 hours after addition, compared with 2-O-(α-D-glucopyranosyl)ascorbic acid and ascorbic acid
Experimental: Human skin epidermal keratinocyte cells HaCaT were plated onto a 100 mm diameter dish at a cell count of 370,000. After 16 hours of culturing, there was added 100 μM of 2-O-(β-D-glucopyranosyl)ascorbic acid dissolved in DMEM containing 10% FBS and 40% of 24-hour serum-free HaCaT culture solution. The medium was removed 3-24 hours after the addition, rinsing was performed twice with ice-cooled PBS, and the cell sheet was treated with trypsin to obtain the separated cells. These were suspended in PBS containing 50 μM dithiothreitol (DTT) and rinsed 3 times by centrifugation. The cells received freeze-thawing twice were crushed with a Potter-type teflon homogenizer for 30 sec on the ice. The cell homogenate was centrifuged at 5° C., and supernate thus separated was stored on the ice. The supernatant was subjected to treatment with Molcut (product of Nihon Millipore Co., Ltd.; High-pressure ultrafiltration unit, nominal molecular weight limit (NMWL): 10,000, polyethersulfone membrane), and the amount of intracellular ascorbic acid was analyzed by high performance liquid chromatography (AS-8020 System by Toso Co., Ltd., column: Shodex ODSpak (4.6×150 mm, product of Showa Denko Co., Ltd.), mobile phase: 0.1 M KH2PO4—H3PO4 (pH 2.35)-0.1 mM EDTA-2 Na, flow rate: 1.5 mL/min) using a coulometric electrochemical detector (ESA Co., Bedford, Mass., 200 mV). […]

[4] = test system: normal human dermal fibroblasts (NHDF); test: Collagen synthesis by normal human dermal fibroblasts ([3H]proline incorporation, collagenase-digestible); type: cell-based; settings: 100 μM, 48 hours, compared to 2-O-(α-D-glucopyranosyl)ascorbic acid or ascorbic acid
Experimental: Normal human dermal fibroblast cells (NHDF) were plated onto a 100 mm diameter dish at a cell count of 370,000. After 16 hours of culture, there was added 100 μM of 2-O-(β-D-glucopyranosyl)ascorbic acid dissolved in DMEM medium containing 10% FBS and 40% of 24-hour serum-free NHDF culture solution. After another hour, 0.12 mL (120 μCi) of L-[2,3-^3H]proline was added and culturing was continued for 48 hours. The medium was removed after culturing, and the cell sheet was rinsed 4 times with PBS. The cells were then treated with trypsin, lysed with an alkali, and then neutralized to obtain the intracellular protein. The fraction obtained by digesting this protein with Clostridium collagenase was measured in terms of radioactivity with a liquid scintillation counter using Scintisol EX-H. The intracellular protein fraction not treated with collagenase was also measured in terms of radioactivity using a liquid scintillation counter. The difference in radioactivities was calculated and recorded as the collagen synthesizing activity. For comparison, 2-O-(α-D-glucopyranosyl)ascorbic acid and ascorbic acid were examined in a similar manner, and the results are also shown in FIG. 7.

[5] = Intestinal absorption in rat: portal vein plasma concentrations after oral administration; type: in vivo
Experimental: A solution of 2-O-(β-D-glucopyranosyl)ascorbic acid in Milli-Q Ultrapure Water (Millipore Corporation) (100 mg/4 mL) was orally administered at a dose of 100 mg/kg by using a feeding tube to overnight-starved and awake 10-week-old male Wistar rats (n=3) purchased from Nihon Charles River Co. After 0, 0.5, 2 and 4 hours, heparinized blood samples were collected from the portal vein and the plasma from each sample was separated by centrifugation (6000×g, 10 min). After addition of an equivalent of ice-cooled 10% metaphosphoric acid (containing 40 mM deferoxamine mesylate), the mixture was centrifuged (10,000×g, 10 min) to obtain protein-removed portal vein plasma, of which the unconverted 2-O-(β-D-glucopyranosyl)ascorbic acid and ascorbic acid concentrations were measured by high performance liquid chromatography (LC-10Ai System by Shimadzu Co., Ltd., Column: Inertsil ODS-3 (GL Science Co., Ltd., 3.0×150 mm, 5 μm), mobile phase: 15% MeOH-17 mM KH2PO4/H3PO4 (pH 3.5)-5 mM tetra-n-amylammonium bromide, flow rate: 0.3 mL/min, column temperature: 35° C., detection wavelength: 254 nm). The unconverted 2-O-(β-D-glucopyranosyl)ascorbic acid and the metabolite (ascorbic acid) were found present in maximum amounts 30 minutes after administration.

[6] = test system: normal human dermal fibroblast (NHDF) cells; test: Population doubling level (PDL) of normal human dermal fibroblasts; type: cell-based; settings: 100 μM
Experimental: Normal human dermal fibroblast (NHDF) cells were plated onto a 100 mm diameter dish at a cell density of 370,000. After 16 hours of culture in DMEM supplied with 10% FBS, the medium was replaced by DMEM fortified with 10% FBS and supplied with 40% of a domestic-conditioned medium containing 100 μM of 2-O-(β-D-glucopyranosyl)ascorbic acid. The cultivation was continued for 46-188 hours until cells reached a near confluent state. The domestic-conditioned medium was prepared by separately culturing NHDF cells to the state of near confluency, which was further cultivated in a serum-free medium for 24 hours, and collecting the culture supernatant, which was stored in a refrigerator and used within 3 days. In connection with the above 46-188 hours of cultivation, the medium was changed every 3 days with fresh DMEM fortified with 10% FBS and supplied with 40% of the domestic-conditioned medium containing 100 μM of 2-O-(β-D-glucopyranosyl)ascorbic acid. When medium change was made, the cell number in the old culture medium was counted and used in the PDL assessment. The number of cells adhering onto the plate was counted by Coulter counter. PDL value at the start of culture was taken as 0, and PDL values thereafter were calculated by the equation: PDL=log2(recovered cell number/seeded cell number). […]

NHDF cells = test: Reduction speed of telomere lengths (TRF Southern blot) in NHDF cells; type: cell-based, human
Experimental: The TRFs were separated by electrophoresis and the length of the telomere DNA was quantified with a labeled probe specifically binding to telomere. Details of the method used in the study is described in Life Sciences, Vol. 63, No. 11, 935-948 (1998).
The fibroblast cells (NHDF) from human skin epidermis were dispersed by treatment with trypsin, added into a 1.5 ml tube at 10^6/tube, centrifuged for 2 min. at 1,200 rpm at 4° C., and the supernatant was discarded. The pellet was washed two times with 1 ml RNase free PBS(−), the supernatant was removed as sufficiently as possible, and the cells were stored at −80° C. The frozen sample was restored to ambient temperature, genomic DNA was extracted by use of IsoQuick Nucleic Acid Extraction Kit (ORCA Research Inc.). The extracted DNA was dissolved in 10 mM Tris-HCl, 1 mM EDTA, pH8.0 to be stored at 4° C. The DNA content was determined by the fluorescent reader (Cytofluor 2350, Millipore Corporation) with the DNA binding reagent Hoechist 33258, and TRF was prepared by restricted digestion with HinfI treatment. The restricted digestion was carried out as follows. There were added into a 1.5 ml tube, 2 μl of 10× H buffer (TaKaRa, Kyoto), the solution of extracted genomic DNA (2 μg), sterilized water to make up 19 μl, and finally 1 μl of HinfI (6 U/μl, TaKaRa, Kyoto). […]

| collagen synthesis activity [4] | time of maximum amount of unconverted 2-O-(β-D-glucopyranosyl)ascorbic acid in portal vein plasma ([5]; Wistar rats, oral 100 mg/kg) | unconverted form in the blood upon oral ingestion ([5]; rats, oral) | SMILES | unconverted form in the blood upon oral ingestion [1] | effect of preventing cell death of HaCaT induced by UVB irradiation [2] | intracellular ascorbic acid concentration [3] | PDL of NHDF greater than in the absence of ascorbic acid derivative (PDL 20.1) [6] | average reduction speed of telomere length (NHDF cells; 225 bp/PDL in the absence of any ascorbic acid derivative) | shortening of the speed of the telomere length to reduce to the critical length (NHDF cells; versus no ascorbic acid derivative) |
| --- | --- | --- | --- | --- | --- | --- | --- | --- | --- |
| – | – | – | O=C1O[C@H]([C@@H](O)CO)C(O)=C1O[C@H]1O[C@H](CO)[C@@H](O)[C@H](O)[C@H]1O [2-O-(α-D-glucopyranosyl)ascorbic acid] | no detection of the unconverted form in the blood | – | – | – | – | – |
| increased activity | 30 min | detected in the blood | O=C1O[C@H]([C@@H](O)CO)C(O)=C1O[C@@H]1O[C@H](CO)[C@@H](O)[C@H](O)[C@H]1O [2-O-(β-D-glucopyranosyl)ascorbic acid] | – | stronger effect of preventing cell death | maintained at a higher concentration for the longest time | 2.62 times | 94 bp/PDL | approximately 42% |
